Results published in patent US20260144769A1, “4-PHENYLBUTYRATE RESTORED GABA UPTAKE AND REDUCED SEIZURES IN SLC6A1 VARIANT-MEDIATED DISORDERS” (Vanderbilt University, priority 2022, published 2026).

Molecular target: T1, wildtype GAT-1 (Rattus norvegicus, UniProt P23978)
T1 construct: The coding region of rGAT-1 was inserted into pEYFP-C1 (Clontech, Palo Alto, CA); expressed in transfected cells; host or cells: HEK293T cells (A1); astrocytes from corrected human iPSCs (A21)
Assay: 3H GABA uptake, HEK293T cells expressing wildtype GAT-1^YFP
Type: cell-based
Settings: for GABA uptake activity vs. wildtype 0: HEK293T, wildtype GAT-1^YFP, normalized to DMSO treated
Method: GABA uptake activity was measured by the high-throughput 3H radio-labeling GABA uptake on a liquid scintillator with QuantaSmart. […] HEK293T cells were transfected with the wildtype or the mutant GAT-1^YFP cDNAs alone for 48 hr. […] HEK293T cells were transfected with the wildtype GAT-1^YFP alone or in mixture of the wildtype or the mutant cDNAs for 48 hr. In the mixed condition, the ratio of the wildtype GAT-1 with pcDNA or the mutant cDNAs are 1:1 with the total cDNA amount of 0.5 μg. […] Both wt and the mutant were normalized to its own DMSO treated conditions. 966 stands for the wildtype treated with CI-966 (50 μM) while 711 stands for NNC-711 (35 μM). (N=4-7 different transfections. In FIG. 4A and FIG. 4B, *P<0.05, **P<0.01, ***p<0.001 vs. wt 0. In FIG. C and FIG. 4D, *P<0.05, **P<0.01, ***p<0.001 vs. its own DMSO treated. In FIG. 4C, ns stands for no significance. One-way analysis of variance (ANOVA) and Newman-Keuls test. Values were expressed as mean±S.E.M.
The plasmid cDNA encoding enhanced yellow fluorescent protein (EYFP)-tagged rat GAT-1 has been previously described. The coding region of rGAT-1 was inserted into pEYFP-C1 (Clontech, Palo Alto, CA). QuikChange Site-directed Mutagenesis kit was utilized to introduce the GAT-1 variants into a wildtype GAT-1 plasmid. The product was then amplified via polymerase chain reaction, transformed using DH5a competent cells, and plated. A clone was chosen and grown overnight. All the GAT-1 variants were confirmed by DNA sequencing. Both the wildtype and the variant cDNAs were prepared with Qiagen Maxiprep kit.
Human embryonic kidney cells were cultured as monolayers in 100 mm^2 dishes. Cells were cultured in Dulbecco's Modified Eagle's Medium supplemented with 10% FBS and 1% penicillin/streptomycin in 37° C. in 5% CO2/95% air. Cells were maintained in culture medium until appropriate confluency for experimentation.
Briefly, cells were cultured in […] dishes for 3 days before the GABA uptake experiment in DMEM with 10% fetal bovine serum and 1% penicillin/streptomycin. The cells were then transfected with equal amounts of the wildtype or the mutant GAT-1 cDNAs (1 μg) for each condition at 24 hrs or 48 hrs after plating. GABA uptake assay was carried out 48 hrs after transfection. The cells were incubated with preincubation solution for 15 min and then incubated with preincubation solution containing 1 μci/mL 3H GABA and 10 μM unlabeled GABA for 30 min at room temperature. After washing, the cells were lysed with 0.25 N NaOH for 1 hr. Glacial acetic acid was added, and lysates were then determined on a liquid scintillator with QuantaSmart. The flux of GABA (pmol/μg/min) was averaged with at least triplets for each condition at each transfection. The average counting was taken as n=1. […]

With `O=C(O)CCCc1ccccc1` [PBA, 4-phenylbutyric acid] the “GABA uptake activity vs. wildtype 0” value (PBA 4 mM as printed) was 1.24±0.09, the “GABA uptake activity vs. wildtype 0” value (PBA for 24 hrs) was 1.24±0.05 and the “GABA uptake activity, concentration and time dependence” value (PBA 0 to 4 mM, 0 to 48 hrs) was “concentration and time dependently increased”. The cell loss (cells treated with PBA at 4 mM and/or 48 hrs) was “occasional cell loss”.
